Results taken from EPA's ToxRefDB 2.

Legend:
dog [1] = conditions: Subchronic oral toxicity in nonrodent, beagle, Capsule, dose end: 3 month, group: systemic, systemic / clinical chemistry / alanine aminotransferase (alt/sgpt) / alanine aminotransferase (alt/sgpt)
rat [2] = conditions: Carcinogenicity, wistar, Oral, Gavage/Intubation, dose end: 24 month, group: systemic
rat [3] = conditions: Peri- and post-natal toxicity study (Segment III); wistar; Injection; Intravenous; dose end: 21 PND; group: parental; systemic / in life observation / body weight / body weight gain + systemic / in life observation / clinical signs / motor activity + …
mouse = conditions: Carcinogenicity; cd1; Oral; Feed; dose end: 18 month; group: systemic; systemic / pathology microscopic / stomach / hyperplasia
dog [4] = conditions: Subchronic oral toxicity in nonrodent, beagle, Capsule, dose end: 98 day, group: systemic
rabbit = conditions: Prenatal developmental toxicity study, new zealand white, Oral, Gavage/Intubation, dose end: 19 GD, group: maternal
[5] = systemic / in life observation / clinical signs / salivation + systemic / organ weight / liver / relative to body weight + systemic / in …
[6] = systemic / pathology microscopic / stomach / neoplasm nos + systemic / hematology / hematocrit (hct) / hematocrit (hct) + systemic / …
[7] = systemic / clinical chemistry / alanine aminotransferase (alt/sgpt) / alanine aminotransferase (alt/sgpt)
[8] = systemic / in life observation / clinical signs / anorexia + systemic / in life observation / clinical signs / no feces

SMILES: CC(C)c1ccc(C(=O)N=C(N)N)cc1S(C)(=O)=O.CS(=O)(=O)O [Cariporide mesylate]
- LEL (dog [1]): 8 mg/kg/day
- LOAEL (dog [1]): > 20 mg/kg/day
- NEL (dog [1]): 3.2 mg/kg/day
- NOAEL (dog [1]): ≥ 20 mg/kg/day
- LEL (rat [2]; [5]): 12 mg/kg/day
- NEL (rat [2]; [5]): < 12 mg/kg/day
- LOAEL (rat [2]; [6]): > 400 mg/kg/day
- NOAEL (rat [2]; [6]): ≥ 400 mg/kg/day
- LEL (rat [3]): 125 mg/kg/day
- LOAEL (rat [3]): > 125 mg/kg/day
- NEL (rat [3]): 5 mg/kg/day
- NOAEL (rat [3]): ≥ 125 mg/kg/day

SMILES: N#Cc1c(Cl)c(Cl)c(Cl)c(C#N)c1Cl [Chlorothalonil]
- LEL (mouse): 1.9 mg/kg/day
- LOAEL (mouse): 1.9 mg/kg/day
- NEL (mouse): < 1.9 mg/kg/day
- NOAEL (mouse): < 1.9 mg/kg/day
- LEL (dog [4]; [7]): 15 mg/kg/day
- NEL (dog [4]; [7]): < 15 mg/kg/day
- LOAEL (dog [4]; systemic / in life observation / body weight / body weight gain): 150 mg/kg/day
- NOAEL (dog [4]; systemic / in life observation / body weight / body weight gain + systemic / clinical chemistry / alanine aminotransferase (alt/sgpt) / …): 15 mg/kg/day
- LOAEL (rabbit; systemic / in life observation / body weight / body weight gain + systemic / in life observation / food consumption / food consumption): 500 mg/kg/day
- NOAEL (rabbit; systemic / in life observation / body weight / body weight gain + systemic / in life observation / food consumption / food consumption + …): 250 mg/kg/day
- LEL (rabbit; [8]): 250 mg/kg/day
- NEL (rabbit; [8]): < 250 mg/kg/day
